# Source: patent publication US8729227B2, “Compounds for control of appetite” (University of Cincinnati, priority 2006, dated 2014)
# Legend:
# C57BL/6 male mice [1] = assay: Feeding pattern of fasted mice after ip injection of hPP or B-74 (Example II, FIG. 1); type: in vivo; conditions: 18 h fasted mice, B-74 100 nmol/mice, versus saline control
# Experimental: To study the feeding patterns of animals treated with B-74, seven to eight week old C57BL/6 male mice (Harlan Laboratories, Indianapolis, Ind.) were individually housed in cages in a temperature controlled room (25° C.) under 12-hour light/dark cycles. Mice had free access to water and standard chow and were acclimatized to daily ip saline injections. […] Food was provided ten (10) minutes later, and the 2 and 4 hour food intake was monitored. Statistical significance was determined by ANOVA, with individual means being compared post-hoc by Tukey's corrected t-test.
# [2] = native PP; cited from earlier work
# C57BL/6 male mice [3] = assay: Preliminary dose study of B-48 on food intake of fasted mice (Example III); type: in vivo; conditions: ip, overnight (18 h) fasted mice, food intake monitored over 1-24 h; preliminary studies, results not shown
# Experimental: To further study the feeding patterns of animals treated with B-48, experiments were performed in seven to eight week old C57BL/6 male mice (Harlan Laboratories, Indianapolis, Ind.) after acclimatization of mice for one week. More specifically, in preliminary studies, overnight (18 h) fasted animals were injected (ip) with 0.1 ml of saline or saline (0.1 ml) containing various concentrations of B-48 (0.025, 0.050, 0.100 or 0.150 μmol/mice) (n=8-10 per group). The mice were provided with a known quantity of chow 10 min later. The food intake was monitored over 1-24 h.
# C57BL/6 male mice [4] = assay: Food intake of fasted mice after ip B-48 or B-74 alone or together (Example IV, FIGS. 2 and 3); type: in vivo; conditions: for Percentage of Inhibition of Food Intake Compared to Saline: B-48 vs. (B-48 + B-74), fasted mice, 0.050 μmol each compound
# Experimental: To further compare the inhibitory effects of injecting (ip) 0.050 μmol of B-48 or B-74 alone or together (B-48+B-74) on the food intake by fasted mice, additional experiments were conducted.
# Accordingly, to study the feeding patterns of animals treated with B-48 or B-74 alone or together (B-48+B-74), seven to eight week old C57BL/6 male mice (Harlan Laboratories, Indianapolis, Ind.) were individually housed in cages in a temperature controlled room (25° C.) under 12-hour light/dark cycles. The mice had free access to water and standard chow. After acclimatizing for one week, mice were fasted 18 hours before the experiment. The fasted animals were injected (ip) with 0.1 ml of saline or saline (0.1 ml) containing B-48 (0.050 μmol/mice) or B-74 (0.050 μmol/mice) alone or together, B-48+B-74 (0.100 μmol/mice, i.e. 0.050 μmol/mice per each compound), (n=8-10 per group). The mice were provided with a blown quantity of chow 10 minutes later. The food intake was monitored over 1-24 h. Statistical significance was determined by AN OVA, with individual means being compared post-hoc by Tukey's corrected t-test.
Substance,2 h food intake (C57BL/6 male mice [1]; 2 h),4 h food intake (C57BL/6 male mice [1]; 4 h),half-life [2],minimum dose required to exhibit significant inhibitory effects on food intake (C57BL/6 male mice [3]) [μmol/mice],Percentage of Inhibition of Food Intake Compared to Saline (C57BL/6 male mice [4]; 2 hours after injection) [%],Percentage of Inhibition of Food Intake Compared to Saline (C57BL/6 male mice [4]; 4 hours after injection) [%],Percentage of Inhibition of Food Intake Compared to Saline (C57BL/6 male mice [4]; 8 hours after injection) [%],"inhibition of food intake over the 24 h time period (C57BL/6 male mice [4]; 18 h fasted mice, 0.050 μmol/mice per each compound, alone or together)",Percentage of Inhibition of Food Intake Compared to Saline (C57BL/6 male mice [4]; 24 hours after injection) [%]
APLEPVYPGDNATPEQMAQYAADLRRYINMLTRPRY [PP],inhibited,inhibited,about six,,,,,,
"N-α-Ac[Nle^24,28,Trp^30,Nva^31,ψ^35/36]PYY(22-36)-NH2 (ASXRHYXNWXTRQRY; N-acetyl, C-amide, Nle, Nva, reduced CH2-NH bond; synthesized by man) [B-48, PYY(22-36) analog, Y2 receptor agonist; ψ is —CH2-NH—]",,,,0.050,39,30,16,inhibited food intake to a greater extent than the control,7
